Source: patent US20040116531A1, “Water-free skin care formulations comprising micronized urea and method of manufacturing the same” (priority 2000, published 2004)

System: human healthy skin
Conditions: in vivo
Description: The study was designed as a single center, randomized, double-blind (investigator-masked) study with intraindividual comparison of treatments to evaluate the cutaneous tolerance of repeated applications of the medical skin care formulations applied under occlusion during 21 days and started with 25 healthy volunteers of either sex between 18 and 65 years old meeting specific inclusion/exclusion criteria.
The volunteers were subjected to an occlusive application of 50 μl of each test formulation on designated test fields on their mid back for 21 consecutive days. The occlusive dressings were removed after 23 hours, and the irritation was evaluated one hour later using a 6-point-score (irritation score):
A Cumulative Irritancy Index (C.I.I.) was calculated for each test preparation for each subject as follows:
C.I.I.=Sum of irritation scores in one individual/number of readings An ‘adjusted C.I.I.’ (C.I.I.*) was calculated by subtracting scores caused by sensitization reactions.
Furthermore, a Mean Cumulative Irritation Index (M.C.I.I.) was calculated for each product by averaging individual C.I.I.s across subjects as follows:
M.C.I.I.=Sum of irritation scores in all individuals/number of readings An ‘adjusted M.C.I.I.’ (M.C.I.I.*) was calculated by subtracting scores caused by sensitization reactions.

- mean scores during the course of the study: no remarkable differences or tendencies
Substance: white soft paraffin
